Test results taken from patent publication US11254781B2, “Urethane-crosslinked biodegradable elastomers” (Massachusetts Institute of Technology, priority 2011, dated 2022).

Tested on: adult male Wistar rats
Details: rat, in vivo
Description: In vivo cardiac biocompatibility of PGSU-SF films All surgical procedures were approved by the IACUC of the Children's Hospital Boston and performed according to the NIH Guidelines for the Care and Use of Laboratory Animals Briefly, adult male Wistar rats (Charles River Laboratories, Wilmington, Mass.) were anesthetized with an intraperitoneal injection of ketamine (100 mg/kg) and xylazine (10 mg/kg), followed by intratracheal intubation. Rats were ventilated with a small animal respirator (Harvard Apparatus, Holliston, Mass.), and anesthesia was maintained with 0.5 to 1.0% isofluorane and 100% oxygen. The heart was accessed through an anterior right-sided thoracotomy, followed by the removal of the pericardial sac. A 1 mm thick and 7 mm in diameter porous PGSU-SF 1:0.3 patch was sutured on the left ventricle (LV) epicardial surface of the rat heart using three 7-0 polypropylene monofilament stitches. The chest wall was closed in layers, and the thoracic cavity evacuated with a 18-gauge intravenous catheter Animals were sacrificed at 1 and 4 weeks (n=4 per time point) after the surgical procedure with CO2, followed by immediate excision of the heart. Tissue sections transverse to the patch and heart surface were stained with Hematoxylin and Eosin stain (H&E). […]

For “poly (glycerol sebacate urethane) [PGSU-SF 1:0.3]”, which “cardiac function (echocardiography)” value is on record?
Its value is “No changes”.

What about the chest adhesions of the same substance?
Its chest adhesions is “Moderate”.
